# ChEMBL document CHEMBL4602643, “Anti-inflammatory activities of isopimara-8(14),-15-diene diterpenoids and mode of action of kaempulchraols P and Q from Kaempferia pulchra rhizomes” (Bioorg Med Chem Lett, 2020)
# Calls of active or inactive are those of the source. No cut-off for these calls is given here.
# Assays:
# RAW264.7 [1] = assay: Antiinflammatory activity in mouse RAW264.7 cells assessed as inhibition of LPS-induced COX2 expression at 25 uM incubated for 24 hrs by Western blot analysis; assay type: functional, cell-based
# RAW264.7 [2] = assay: Anti-inflammatory activity in mouse RAW264.7 cells assessed as inhibition of LPS-induced NO production at 100 uM relative to control; assay type: functional
# [3] = Cytotoxicity against mouse RAW264.7 cells assessed as cell survival at 5 uM; assay type: cell-based; settings: read-out: Activity
# RAW264.7 [4] = assay: Inhibition of LPS-induced IL-6 production in mouse RAW264.7 cells at 25 uM by ELISA; assay type: functional, cell-based
# [5] = Cytotoxicity against mouse RAW264.7 cells assessed as cell survival at 10 uM; assay type: cell-based; settings: read-out: Activity
# RAW264.7 [6] = assay: Anti-inflammatory activity in mouse RAW264.7 cells assessed as inhibition of LPS-induced NO production at 50 uM relative to control; assay type: functional
# RAW264.7 [7] = assay: Inhibition of LPS-induced NF-kappaB activation in mouse RAW264.7 cells expressing luciferase gene at 5 to 25 uM by luciferase reporter gene assay; assay type: cell-based
# [8] = Cytotoxicity against mouse RAW264.7 cells assessed as cell survival at 50 uM; assay type: cell-based; settings: read-out: Activity
# RAW264.7 [9] = assay: Anti-inflammatory activity in mouse RAW264.7 cells assessed as inhibition of LPS-induced NO production; assay type: functional, cell-based
# [10] = Cytotoxicity against mouse RAW264.7 cells assessed as cell survival at 100 uM; assay type: cell-based; settings: read-out: Activity
# RAW264.7 [11] = assay: Anti-inflammatory activity in mouse RAW264.7 cells assessed as inhibition of LPS-induced NO production at 10 uM relative to control; assay type: functional
# RAW264.7 [12] = assay: Anti-inflammatory activity in mouse RAW264.7 cells assessed as inhibition of LPS-induced NO production at 5 uM relative to control; assay type: functional
# RAW264.7 [13] = assay: Inhibition of NF-kappaB activation in mouse RAW264.7 cells expressing luciferase gene at 5 to 25 uM by luciferase reporter gene assay; assay type: cell-based
# RAW264.7 [14] = assay: Cytotoxicity against mouse RAW264.7 cells expressing luciferase reporter gene assessed as cell survival at 5 to 25 uM; assay type: cell-based; settings: raw264.7, 25 µM
compound,measurement,setting,value
C=C[C@]1(C)C=C2C[C@@H](O)[C@H]3C(C)(C)CCC[C@]3(C)[C@H]2CC1,inhibition,RAW264.7 [1],Active
same,inhibition at 100 µM,RAW264.7 [2],81.7%
same,viability at 5 µM,[3],98.7%
same,inhibition,RAW264.7 [4],Active
same,viability at 10 µM,[5],149%
same,inhibition at 50 µM,RAW264.7 [6],65.6%
same,inhibition,RAW264.7 [7],Active
same,viability at 50 µM,[8],109%
same,IC50,RAW264.7 [9],39.9 µM
same,viability at 100 µM,[10],66.8%
same,inhibition at 10 µM,RAW264.7 [11],3.82%
same,inhibition at 5 µM,RAW264.7 [12],9.97%
same,inhibition,RAW264.7 [13],Active
same,Activity,RAW264.7 [14],Non-Toxic
